Results published in the supplement of paper PMC4862054.

Columns and labels:
Test in all cases: normalised response (% of control), CellTiter-Glo; higher = more viable cells (100 = DMSO, 0 = benzethonium chloride kill control)
Conditions in all cases: incubation time: 72 h
[1] = test system: BT-474
Procedure, shortened: (§1)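 A 20 µl suspension of breast cancer cells was seeded into each well of 384-well plates containing compound at 5 concentrations in 10-fold steps over a compound-specific 10,000-fold range. After 72 h incubation, CellTox Green fluorescence (485/520 nm) was read first, and CellTiter-Glo luminescence was read after 10 min at room temperature. Each plate was normalised against 0.1 % DMSO (100) and a positive kill control (0), and each value is the normalised signal at one concentration.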

[2] = test system: BT-549
Procedure, shortened: as §1

[3] = test system: CAL-120
Procedure, shortened: as §1

[4] = test system: CAL-148
Procedure, shortened: as §1

[5] = test system: CAL-51
Procedure, shortened: as §1

[6] = test system: CAL-85-1
Procedure, shortened: as §1

[7] = test system: DU-4475
Procedure, shortened: as §1

[8] = test system: HCC1143
Procedure, shortened: as §1

[9] = test system: HCC1599
Procedure, shortened: as §1

[10] = test system: HCC1937
Procedure, shortened: as §1

[11] = test system: HDQ-P1
Procedure, shortened: as §1

[12] = test system: Hs578T
Procedure, shortened: as §1

[13] = test system: MCF-10A
Procedure, shortened: as §1

[14] = test system: MDA-MB-231
Procedure, shortened: as §1

[15] = test system: MDA-MB-436
Procedure, shortened: as §1

[16] = test system: MDA-MB-453
Procedure, shortened: as §1

[17] = test system: MDA-MB-468
Procedure, shortened: as §1

[18] = test system: MFM-223
Procedure, shortened: as §1

[19] = test system: SK-BR-3
Procedure, shortened: as §1

Row | Compound | normalised response [1] [%] | normalised response [2] [%] | normalised response [3] [%] | normalised response [4] [%] | normalised response [5] [%] | normalised response [6] [%] | normalised response [7] [%] | normalised response [8] [%] | normalised response [9] [%] | normalised response [10] [%] | normalised response [11] [%] | normalised response [12] [%] | normalised response [13] [%] | normalised response [14] [%] | normalised response [15] [%] | normalised response [16] [%] | normalised response [17] [%] | normalised response [18] [%] | normalised response [19] [%]
1 | C[C@@]1(C(=O)Nc2ccc(F)nc2)CCCN1c1nc(Nc2cc(C3CC3)n[nH]2)c2cccn2n1 (10 nM) | 90.7 | 88 | 91.2 | 87.3 | 99.3 | 91.6 | 99.5 | 97.5 | 96.1 | 95.4 | 85.4 | 92.4 | 67.5 | 88.1 | 92.5 | 92.8 | 86.8 | 83.4 | 71.5
2 | Cc1cc(C(C)Nc2ccccc2)c2nc(N3CCOCC3)cc(=O)n2c1 (configuration not stated) [TGX-221] (10 nM) | 92.5 | 95.2 | 94.5 | 95 | 96.5 | 98.2 | 97.9 | 102 | 98.4 | 98.8 | 95.4 | 97.6 | 92.3 | 92.2 | 98 | 98.6 | 94.7 | 96.3 | 93.2
3 | O=C(c1ccc(OCCN2CCCCC2)cc1)c1c(-c2ccc(O)cc2)sc2cc(O)ccc12 [Raloxifene] (10 nM) | 105 | 94.8 | 98.7 | 106 | 68.2 | 99 | 107 | 115 | 100 | 106 | 107 | 105 | 106 | 99.8 | 101 | 94.7 | 112 | 105 | 107
4 | COc1ccc(C2=N[C@@H](c3ccc(Cl)cc3)[C@@H](c3ccc(Cl)cc3)N2C(=O)N2CCNC(=O)C2)c(OC(C)C)c1 [Nutlin-3] (10 nM) | 97.4 | 101 | 98.3 | 102 | 86.3 | 101 | 104 | 106 | 104 | 103 | 100 | 104 | 99.6 | 100 | 99.9 | 100 | 105 | 103 | –
5 | Nc1nccc(-c2c(-c3ccc(F)cc3)ncn2C2CCCCC2)n1 (1 nM) | 97.9 | 109 | 95.7 | 105 | 119 | 98.8 | 102 | 109 | 104 | 105 | 101 | 104 | 110 | 105 | 100 | 95.5 | 94.1 | 102 | 108
6 | Cn1cnc2c(F)c(Nc3ccc(Br)cc3F)c(C(=O)NOCCO)cc21 [MEK-162] (1 nM) | 106 | 99.8 | 100 | 102 | 108 | 95.7 | 99.7 | 99.6 | 99.7 | 96.3 | 93.2 | 95.4 | 96.1 | 99 | 101 | 103 | 103 | 103 | 116
7 | CCCC(CCC)C(=O)O [Valproic acid] (100 nM) | 98.9 | 99.7 | 103 | 102 | 103 | 97.1 | 96.2 | 102 | 88.9 | 96.4 | 101 | 104 | 101 | 105 | 106 | 109 | 97.1 | 95.5 | 95.8
8 | CC(=O)O[C@H]1C(=O)[C@@]2(C)[C@H]([C@H](OC(=O)c3ccccc3)[C@]3(O)C[C@H](OC(=O)[C@H](O)[C@@H](NC(=O)c4ccccc4)c4ccccc4)C(C)=C1C3(C)C)[C@]1(OC(C)=O)CO[C@@H]1C[C@@H]2O [Paclitaxel] (1 nM) | 89.5 | 93.1 | 91.6 | 89.2 | 129 | 99.5 | 92.2 | 90.4 | 97.8 | 94.7 | 89.8 | 88.8 | 81.5 | 88.6 | 91.4 | 92.8 | 96.1 | 89.5 | –
9 | Cc1cc(C(C)Nc2ccccc2)c2nc(N3CCOCC3)cc(=O)n2c1 (configuration not stated) [TGX-221] (1 nM) | 93.1 | 99.4 | 95.8 | 95.5 | 109 | 92.1 | 95.2 | 93.8 | 89.6 | 97.6 | 96.2 | 98.4 | 96.5 | 92.7 | 84 | 98.5 | 92.8 | 101 | 97
10 | C[C@@H]1CCN(C(=O)CC#N)C[C@@H]1N(C)c1ncnc2[nH]ccc12 [Tofacitinib] (5 nM) | 114 | 97.2 | 95.7 | 111 | 122 | 112 | 110 | 105 | 115 | 96.3 | 103 | 103 | 108 | 103 | 104 | 120 | 104 | 101 | –
